Measurements published in PubChem BioAssay AID2305 (GlaxoSmithKline (GSK), 2010).

System: P. falciparum 3D7 growth, pLDH absorbance
Experiment: blood-stage malaria parasite growth potency – strain 3D7, dose response (AID 2305)

| SMILES | IC50 [nM] |
| --- | --- |
| Clc1cccc(CNc2nc(NCCc3cnc[nH]3)nc(NC3CCCCC3)n2)c1 | 790 |
| CCOc1cc(C=NNc2nc3ccccc3[nH]2)ccc1OCc1ccc([N+](=O)[O-])cc1 | 1000 |
| CCCc1ccc(S(=O)(=O)NC2CCN(c3ccnc(Nc4ccc(OC)cc4)n3)C2)cc1 (centres undefined) | 1190 |
| CC[C@H](C)CNC(=O)c1ccnc(-c2cccc(CN3CCC(N4CCCC4)CC3)c2)c1 | 850 |
| CCc1cn2c3c(cc(C(=O)N[C@@H](Cc4ccccc4)[C@H](O)CNC4CCCC4)cc13)N(C)S(=O)(=O)CC2 | 50 |
| c1ccc(-c2ccc(-c3csc(Nc4ccncc4)n3)cc2)cc1 | 1010 |
| COc1ccc(CN(C)CCOc2ccc(NC(=O)c3cccc4c(=O)c5cc(SC)ccc5[nH]c34)cc2)cc1OC | 880 |
| CN1CCN(CCCN(Cc2cccc(-c3ccc(CNCCc4ccccc4)cc3)c2)C(=O)Nc2ccccc2)CC1 | 830 |
| O=C(/C=C/c1ccc(Cl)c(Cl)c1)NC1CCC(CN2CCC(c3c[nH]c4ccncc34)CC2)CC1 (centres undefined) | 400 |
| CCOC(=O)c1cccc(N/C(N)=N/c2nc(C)cc(NCCc3ccccc3)n2)c1 | 680 |
| CC(=O)Nc1ccc(CN2CCC(NC(=O)c3ccc(-c4cccc(Cl)c4)s3)CC2)cc1 | 790 |
| Cc1cccc2[nH]c(-c3cccc(-c4cccc(NC(=O)Nc5ccc(Cl)cc5)c4)c3)nc12 | 240 |
| CCOC(C(=O)OCCN(C(C)C)C(C)C)(c1ccccc1)c1ccccc1 | 870 |
| COc1ccc(Nc2nccc(N3CCC(NS(=O)(=O)c4ccc(NC(C)=O)cc4)C3)n2)cc1 (centres undefined) | 800 |
| Cc1nc2nc(N)nc(N)c2c(C)c1Cc1ccc(Cl)cc1 | 220 |
| NS(=O)(=O)c1cccc(N=Cc2c(O)[nH]c3ccc(S(=O)(=O)Cc4c(Cl)cccc4Cl)cc23)c1 | 720 |
| CS(=O)(=O)Nc1ccc2c(C3CCN(CCC4CCN(C(=O)/C=C/c5ccc(Cl)c(Cl)c5)CC4)CC3)c[nH]c2c1 | 600 |
| Cc1[nH]cc(Br)c(=O)c1-c1ccc(Oc2ccc(OC(F)(F)F)cc2)cc1 | 330 |
| COc1cccc(-c2cc(C(F)(F)F)n3ncc(C(=O)Nc4cc(C)ccc4O)c3n2)c1 | 160 |
| OC(CNC1CCCCC1)Cn1c2ccccc2c2ccccc21 (centres undefined) | 990 |
| NC(=NCCc1ccc(Cl)c(Cl)c1)c1ccc2ccccc2c1 | 510 |
| CC(C)C[C@H](NC(=O)c1cc2ccccc2s1)C(=O)N[C@H]1CCN(Cc2ccc(OCCCN(C)C)c(Cl)c2)C1 | 900 |
| COc1ccc2c(c1)[nH]c1c(C=Cc3ccccc3)nccc12 | 380 |

| SMILES | IC50 [nM] |
| --- | --- |
| CCCC(=O)NC(c1ccc(C)cc1)c1ccc2cccnc2c1O (centres undefined) | 960 |
| c1ccc(-c2nnc(-c3ccccn3)nc2NC2CCCCC2)cc1 | 910 |
| CC1CCCCN1S(=O)(=O)c1ccc(NC(=O)c2cc(-c3ccccc3O)n[nH]2)cc1 (centres undefined) | 760 |
| C[C@H](Cc1ccc(OCCCCOc2ccc(C[C@@H](C)NC[C@H](O)c3cccc(Cl)c3)cc2)cc1)NC[C@H](O)c1cccc(Cl)c1 | 760 |
| O=c1cc(NCCCNCc2cccc(OC(F)(F)C(F)F)c2)[nH]c2ccccc12 | 1270 |
| COc1cc(N(Cc2ccc(F)cc2)C(=O)c2ccc(-c3ccccc3)cc2)ccc1OCCN1CCCC1 | 830 |
| COc1ccc(-c2cc(C(=O)Nc3ccc(CCCN(C)Cc4ccc(OC)c(OC)c4)cc3)c3ccccc3n2)cc1 | 700 |
| COc1cc(C2=NN(S(=O)(=O)c3c(Cl)cc(Cl)cc3Cl)CCCC2)ccc1Cl | 290 |
| O=C(Nc1cccc(CN2CCCN(Cc3ccc(O)cc3)CC2)c1)c1ccc2ccccc2c1 | 370 |
| OC(CNc1ccnc(Nc2cccc(OCCCN3CCOCC3)c2)n1)c1ccccc1 (centres undefined) | 920 |
| COc1ccc2nccc(N3CCC(CCNCc4ccc5c(n4)NC(=O)CO5)CC3)c2n1 | 1000 |
| NS(=O)(=O)c1cccc(Nc2nc(N[C@@H]3CCNC3)nc3cc[nH]c(=O)c23)c1 | 940 |
| CCCC[C@@H](C(=O)NCCc1ccc(Cl)cc1)N1C(=O)CCC1C(=O)Nc1ccc(Cl)c(Cl)c1 (some centres undefined) | 870 |
| OCCN1CCN(Cc2ccc(-c3ccc(-c4nc5ccccc5[nH]4)cc3)cc2)CC1 | 620 |
| Cc1noc(C)c1-c1cccc(CNCc2ccc(-c3ccc(-c4nc5ccc(F)cc5[nH]4)s3)cc2)c1 | 420 |
| O=C(C1CCCC1)N1CCOC(CCN2CCC(c3ccccc3)CC2)(c2ccc(Cl)c(Cl)c2)C1 (centres undefined) | 940 |
| COc1ccc(C2SCC(=O)N2CCc2ccc(OC)c(OC)c2)cc1 (centres undefined) | 310 |
| O=C(N[C@@H](CC1CCCCC1)C(=O)NCCN1CCCCC1)c1ccc(O)c(-c2cccc(C(F)(F)F)c2)c1 | 830 |
| Cn1cnc(CCNC(=O)c2ccc(-c3ccc(-c4nc5ccc(C(F)(F)F)cc5[nH]4)s3)cc2)c1 | 400 |
| COCc1cccc(-c2cc(-c3ccc(S(C)(=O)=O)cc3)cnc2N)c1 | 1000 |
| Cc1cc(N(C)CCCN(C)C)nc(Nc2ccc(Br)cc2)n1 | 640 |
| CC(C)c1ccc(NC(=S)NN=Cc2ccccn2)cc1 | 720 |
| O=C(CCc1ccccc1)N[C@H](Cc1c[nH]c2ccccc12)C(=O)N1CCC(NCc2ccc3c(c2)Cc2ccccc2-3)CC1 | 910 |

| SMILES | IC50 [nM] |
| --- | --- |
| Nc1c2ccccc2nc2cc(Cl)ccc12 | 710 |
| Cc1cccc(CN2CCCN(Cc3ccc(C(=O)Nc4ccc(C(C)(C)C)cc4)cc3)CC2)c1 | 730 |
| Cc1ccc(C(=O)Nc2ccc(Nc3ccnc4cc(-c5ccncc5)ccc34)cc2O)cc1 | 930 |
| CN(Cc1cccc(F)c1)C1CCN(c2cc(NC(=O)c3ccc(F)cc3)ccn2)C1 (centres undefined) | 1230 |
| O=C(Nc1ccc(-c2ccc(-c3nc4ccc(C(F)(F)F)cc4[nH]3)s2)cc1)c1cnc[nH]1 | 670 |
| CN1CCCN(Cc2ccc(-c3cccc(NC(=O)c4ccc(Cl)cc4)c3)cc2)CC1 | 610 |
| CCN(CC)CCN1C(=O)C(O)(c2ccccc2Cl)c2c1cc(C#N)cc2C(F)(F)F (centres undefined) | 950 |
| COc1ccc2nccc([C@@H](O)CN3CCC(NC(=O)/C=C/c4ccc5ccccc5n4)CC3)c2c1 | 990 |
| COc1cc2cc(-c3nc4ccccc4[nH]3)c(N)nc2cc1OC | 170 |
| Cc1ccc(NC(=O)c2ccc(CN3CCCN(CC4CCCCC4)CC3)cc2)cc1 | 800 |
| CSc1cccc(NC(=O)Nc2ccc(I)c(OCCN(C)C)c2)c1 | 690 |
| CC(C)(C)c1cc(C(=O)N2CCN(c3ncccc3C(F)(F)F)CC2)n(Cc2ccccc2)n1 | 250 |
| Cc1[nH]c(C)c(-c2ccc(Oc3ccc(O)cc3)cc2)c(=O)c1Cl | 1040 |
| CCCCNCc1ccc(OCc2cccc(COc3ccc(CNCCCC)cc3I)c2)c(I)c1 | 1120 |
| C[C@@H](CC1CCCCC1)OC(=O)N(C)[C@@H]1CCN(C#N)C1 | 620 |
| Cc1ccccc1C1CCN(C2CCC(NC(=O)/C=C/c3c(F)ccc(F)c3F)CC2)CC1 (centres undefined) | 1260 |
| Cc1ccc(-c2ccn(Cc3cccc(OCc4ccccc4)c3)n2)cn1 (tested in a mixture with another compound) | 1180 |
| CN1CCN(CCCNCc2cccc(-c3ccc(CNCCc4ccccc4)cc3)c2)CC1 | 780 |
| CCOC(=O)c1[nH]c(-c2cc(Cl)nc(Cl)c2)nc1NC(=S)NCCCN1CCOCC1 | 930 |
| COc1ccc2c(c1)CC(C)(C)NC2CCCCCCCCC1NC(C)(C)Cc2cc(OC)ccc21 (centres undefined) | 1300 |
| O=C(/C=C/c1ccc(Cl)c(Cl)c1)NCCCCCN1CCC(NC(=S)Nc2cccc(Cl)c2)CC1 | 870 |
| Cc1ccc(Cn2nc(Cl)c(N3CCCNCC3)cc2=O)cc1NC(=O)Nc1ccc(-c2ccccc2)cc1 | 670 |
| COc1ccccc1C(C)NCC(=O)Nc1cccc(C(=O)Nc2cccc(C(F)(F)F)c2)c1 (centres undefined) | 1530 |
